Values quoted from earlier work as cited in US7261867B1 (Eastman Kodak Company, priority 2006, dated 2007).

Key:
Conditions in all cases: 0.5% concentration in polymethylmethacrylate bone cement
Escherichia coli = test system: Escherichia coli
Pseudomonas aeruginosa = test system: Pseudomonas aeruginosa
Staphylococcus aureus = test system: Staphylococcus aureus

Measured: inhibition of bacterial growth

O=S(=O)([O-])[O-].[Ag+].[Ag+] [silver sulphate]
significantly inhibit: Escherichia coli | Pseudomonas aeruginosa | Staphylococcus aureus

silver oxide
significantly inhibit: Escherichia coli | Pseudomonas aeruginosa | Staphylococcus aureus

[Cl][Ag] [Silver chloride]
significantly inhibit: Escherichia coli | Pseudomonas aeruginosa | Staphylococcus aureus
